US11987835B2, “Amino acid-sensing diguanylate cyclase and methods of use” (priority 2019, dated 2024)
Positions count from the first letter of the chain named. Read-outs that look alike come from different tables or passages of the source.

Experiments:
[1] = test system: SpdE diguanylate cyclase activity in Aer01; assay: Intracellular cyclic di-GMP quantification; type: cell-based, Aeromonas veronii; details: WT Aer01, 1 mM amino acid, ~4 hrs, versus no ligand
Method: Intracellular cyclic di-GMP quantification. […] Cultures were incubated, shaking, at 30° C. for 4 hours. Sample OD600 was measured and the entire volume pelleted. Sample pellets were resuspended in 300 μL ice cold extraction buffer (40/40/20 acetonitrile/methanol/water+0.1 N formic acid), iced for 30 min, then pelleted at maximum speed in tabletop microcentrifuge for 10 min. The supernatant was transferred to a new tube and stored at −80° until being vacuum concentrated until completely evaporated.
Dried samples were resuspended in 100 μL Ultra Performance liquid chromatography-grade water and centrifuged for two minutes at 18,000×g (Eppendorf® Centrifuge 5242R). The debris-free supernatants were moved to LCMS Certified Clear Glass 12×32 mm screw neck max recovery vials (Waters®). Ten microliters of each sample were analyzed using LC-MS/MS on a Quattro Premier XE mass spectrometer coupled with an Acquity Ultra Performance LC system (Waters®). Cyclic di-GMP was detected with electrospray ionization using multiple reaction monitoring in negative-ion mode at m/z 689.16→344.31. […]
In the case of SpdE, ligand binding to the PAS/Cache was hypothesized to regulate SpdE diguanylate cyclase activity, thereby altering intracellular levels of c-di-GMP. To test this, WT and ΔspdE Aer01 were incubated in the presence or absence of amino acid ligands for ˜4 hrs, then pelleted and lysed the cells to extract and quantify intracellular c-di-GMP.

[2] = test system: Aer01 immigration into GF zebrafish; assay: Migration rate experiments; type: in vivo; details: WT +/- valine
Method: Migration rate experiments. Strains were grown, shaking, overnight in TSB, at 30° C. Overnight cultures were pelleted and washed in sterile EM, then diluted to 1:100 in sterile EM, and incubated at room temperature for ˜2 hrs. If amino acid SpdE ligands were tested, amino acids were added to the prepared inoculum and fish flasks before the 2 hr incubation. GF zebrafish (5 or 6 dpf) inoculated with the cultures to yield ˜10^5 CFU/ml. The fish were then split into replicate flasks containing 10 fish and 10 ml inoculated flask EM. An EM sample was taken and plated immediately to quantify CFU/ml of the inoculating strain. […] After 24-48 hr incubation, colonies on plates were counted.
To more directly investigate differences in immigration rate, migration rate experiments were performed. Fish were mono-associated (inoculated with individual strains) via the EM, then 10 fish were dissected every 60 minutes, and the fraction of fish colonized at each time point was calculated (FIG. 3). […] This experiment assessed the ability of Aer01 variants to migrate into GF fish from the environment during initial colonization. […] After allowing 15 hrs for Aer01 to migrate from donor to recipient fish, the fish were dissected and determined the abundance of Aer01 in all fish within each flask (FIG. 6D).

Aer01 [3] = type: cell-based, Aeromonas veronii; details: for exploration response: WT Aer01, 1 mM ligand versus WT without ligand, mean
Method: Exploration Assay. Overnight cultures (TSB) of Aer01 Strains were pelleted (1 mL), and resuspended in 1 ml sterile EM. […] The cultures were incubated, shaking, at 30° C. for 3 hours. An aliquot of each culture was passed through a 0.2 μM filter (Corning® Costar® Spin-X® centrifuge tube filters) to generate cell-free supernatant. To a sterile 96-well plate round-bottom plate, 80 μL of unfiltered culture was added to each well to include five replicates for each condition. To another sterile 96-well plate round-bottom plate, 80 μL of the cell-free supernatant was added to each well to replicate the layout of the culture plate. Using a Rainin Liquidator™ 96-channel benchtop pipettor, 5 μL of the cell-free supernatant was pulled up into 20 μL Rainin pipette tips. These tips then were lowered down into the wells of the culture plate so the tips were submerged to half the depth of the culture volume in the wells. This set-up was incubated at room temperature for 30 min, during which time the cells in the culture can swim up into the supernatant in the pipette tips. After incubation, the contents of the tips were ejected into the wells of a sterile 96-well plate (Corning, flat-bottom, #3595) to which 195 μL of sterile TSB medium was added to each well. This plate was immediately placed in a FLUOstar Omega microplate reader (BMG Labtech, Offenburg, Germany) and growth curves monitored by measuring absorbance (600 nm) every 10 min for 12-16 hrs, with 30° C. incubation and constant shaking. The growth curves were plotted and the times at which the absorbance passed 0.5 was determined for each plot. The time difference between a particular condition and a reference condition (as indicated in FIG. 5C) represents the “exploration response” of Aer01 in that condition.
An “exploration assay” was used to measure population-level motility. For this assay Aer01 was incubated in the presence/absence of amino acid ligand (1 mM) for˜4 hrs, then the culture was added to the wells of a 96-well plate and pipette tips filled with the cell-free supernatant of the same cultures was lowered into the wells (FIG. 13). During a 30 min incubation period the Aer01 cells in the wells swam up into the pipette tips. […] To quantify the number of cells in the pipette tips after the 30 min exploration time, the contents of the pipette tips were ejected into the wells of a 96-well plate containing rich media and growth curves were monitored. […] This time difference between conditions, “exploration response,” was calculated to compare across many strains and conditions (FIG. 12C).

Aer01 [4] = type: cell-based, Aeromonas veronii
Method: Live imaging and quantification of Aer01 motility. […] EM containing proline or valine (pH adjusted to 7.8 with HCl/NaOH) was added to the wells to generate the desired final concentrations of amino acid (0, 1 nM, 10 nM, 100 nM, 1 μM, or 1 mM) and cell densities of OD 0.1, each performed in triplicate. The tray was covered by parafilm and incubated at 30° C. for 5 hours. Cells were imaged between hour 5-6. Prior to imaging, bacterial samples were moved to a temperature-controlled box housing the microscope, heated to 30° C. 2 ul of bacteria from treatments were applied to a well slide (MP Biomedicals 10-well multitest slides #096041805), covered with a coverslip, and imaged immediately. Videos of bacteria were captured using a Nikon Eclipse Ti inverted microscope on the GFP channel using 20× magnification at 39 frames per second. Videos of treated bacteria were analyzed with particle tracking software (Parthasarathy, Nature Methods 9:724-236, 2012) using these settings: “objects” were identified using bpfilter 3, nsize 7, and gradobjsize 0. A standard threshold of 3.99-6 was applied, depending on the degree of background. Motile bacteria were defined as objects tracked over at least 1 s (39 frames) with a standard deviation in position of pixels/frame of at least 1.
To do this, Aer01 was incubated in medium+/−ligand (ranging between 0 and 1 mM) then wet-mounted and imaged on an inverted microscope.

Aer01 [5] = assay: Biofilm assay (crystal violet); type: cell-based, Aeromonas veronii; details: WT Aer01, 1 mM ligand, 48 hrs
Method: Biofilm Assay. […] To the wells of a sterile 96-well plate (Corning, flat-bottom, #3595), 150 μL of each resuspended culture was added, in triplicate. A blank control well was added for each condition using the appropriate uninoculated media. This plate was incubated at 30° C., stationary, for 48 hours. After incubation, the biofilms were quantified using a standard crystal violet biofilm staining procedure. […] Briefly, the supernatant was removed from each well, then the wells gently rinsed three times with 150 μL sterile EM. Then, 150 μL 0.1% crystal violet was added to each well and the plate was incubated at room temperature for 10 minutes, followed by five rinses with 150 μL sterile EM. To destain, 150 μL 95% ethanol was added to each well and the plate was incubated at room temperature for 10 minutes. Each well was mixed well and the contents transferred to a clean 96-well plate and the absorbance (570 nm) was read on a FLUOstar Omega microplate reader (BMG Labtech, Offenburg, Germany).

[6] = test system: Aer01 colonization of larval zebrafish gut; assay: Bacterial competitions in vivo (competitive index); details: GF zebrafish; for median CI (competitive index) of ΔspdE versus WT: ligand supplemented into inoculum and flask medium (1 mM proline)
Method: Bacterial competitions in vivo. For in vivo bacterial competitions, strains (purified evolved isolates, or Aer01 genetic variants) were grown overnight in TSB from freezer stocks. 1 ml of the overnight cultures were pelleted (8,700 rcf, 2 min), then resuspended in 1 ml sterile EM. Competing strains were mixed, then added to flasks of 4 dpf GF (or CV fish) WT fish at ˜10^6 CFU/ml. For all competitions, sfGFP-tagged Aer01 was used as the “reference” strain. […] At 7 dpf, fish intestines were dissected as described above, and each intestine transferred into a 1.6 ml tube containing 500 μl sterile EM and ˜100 μl bullet beads, then bullet blended as described above. Homogenized samples were diluted appropriately in sterile EM, spread plated on TSA plates, incubated at 30° C. for 1-2 days, and the colonies counted. Strains were differentiated by fluorescence microscopy. Competitive index (CI) was calculated by dividing the strain ratio (test strain divided by reference strain) in the gut at the end of the competition by the strain ratio in the inoculum ((test/reference)gut/(test/reference)inoculum) (FIG. 1). The limit of detection is 5 CFU/gut; for samples were one strain was below the limit of detection, the abundance was set to 5 CFU in order to calculate a CI; this was the case for few of the samples.
To test whether WT motility, and therefore immigration into the host, could be increased with addition of ligands, competitions were performed as previously described, this time supplementing the inoculum and flask medium with SpdE ligand.

[7] = test system: Aer01 SpdE tandem PAS/dCache region (residues 37-287); assay: Thermofluor (thermal shift) assay, Aer01 SpdE; type: binding, Aeromonas veronii; details: 10 mM pure amino acid; for thermal shift (ΔTm) in words: replicate ΔTm data
Method: (§1) Thermofluor Assay. The periplasmic portion of SpdE was cloned, expressed and purified in E. coli. Thermofluor assays were performed using a Thermo Fisher Scientific StepOnePlus Real-time PCR instrument. Each 20 μL sample contained 0.1 mg/mL SpdE protein, 4× SYPRO Orange dye, 165 mM NaCl, 80 mM Tris pH 7.5 and 10 mM ligand (free amino acid dissolved in water). All samples were done in triplicate and repeated 2-3 times on different days. All reagents and steps were performed at 4° C. and placed in 96 well PCR plates. The PCR plate was slowly heated (˜0.03° C./sec) from 4° C. to 80° C. in the StepOnePlus instrument and fluorescent measurements were taken every 8.5 sec. The resultant thermal shift curves were analyzed to find the inflexion points, which correspond to the melting temperature (Tm) of the protein (with or without ligand). Inflexion points were determined in Microsoft Excel by calculating the half way point between the minimum fluorescence value prior to fluorescence increase and the maximum fluorescence value. The Tm difference between protein with and without ligand was calculated and plotted to determine the thermal stability shift as a proxy for ligand binding.
In order to identify SpdE ligands, a thermal shift assay was conducted using 96-well Biolog Phenotype MicroArray plates as a high-throughput approach to screen compounds for ligand candidates. Using heterologously expressed and purified tandem PAS/dCache region of the protein (residues 37-287), ˜200 compounds were screened for ones that conferred a significant shift in protein thermal stability (see Table 4). […] For each curve, the melting temperature (Tm) was determined (brown circles), which corresponds to the midpoint of protein unfolding. The ΔTm (difference between test Tm and water control Tm) was calculated for each amino acid condition.

Aer01 [8] = type: cell-based, Aeromonas veronii; remark: listed apart in the source
Method: For light-sheet microscope-based imaging and determination of cellular swim speeds, overnight cultures (TSB) of strains (dTomato-tagged Aer01 and dTomato-tagged ΔspdE) were washed twice with sterile EM, as above. […] FC-EM was generated by collecting the flask EM of GF 5 or 6 dpf zebrafish larvae, filter-sterilizing and storing at 4° C. A glass cuvette was filled with culture and imaged on a custom-built light sheet fluorescence microscope, as previously described (Taormina et al., Biol. Bull. 223:7-20, 2012). The light sheet optically sections bulk samples in the center of the cuvette, so as not to constrain the motility of the imaged bacteria by surfaces. Movies in a single optical plane were captured for a duration of 20 seconds (frame rate of 30 frames/sec) with excitation light provided by a 561 nm solid state laser (Coherent Sapphire 20 mW; all strains expressed dTomato fluorescent protein). […] As above, particle tracking software, which uses a radial-symmetry-based algorithm, was used to analyze images (Parthasarathy, Nature Methods 9:724-726, 2012). The following parameters were used: bpfiltsize=7, nsize=7, gradobjsize=7, 1/nhood=true. […]
Therefore, the cells were next imaged in a cuvette on a light sheet microscope where they would be recorded within a three-dimensional space and not impeded by surfaces. […]

[9] = Thermofluor assay with Aer01 SpdE single residue variants; type: binding, Aeromonas veronii; details: single residue change versus wild-type Aer01 SpdE PAS/dCache
Method: as §1, with “binding. […]” for “binding.”

[10] = SpdE-NarQ chimeric sensor β-galactosidase reporter; type: cell-based, Escherichia coli; details: expected from sensitivity of SpdE-dependent responses
Description: SpdE tandem PAS/dCache is a sensitive and specific sensor of particular amino acids. This domain is utilized for the design of novel biosensors of amino acid ligands by engineering chimeric reporter proteins fusing them to the signaling domain of an Escherichia coli protein, NarQ. NarQ is a nitrate/nitrite sensor which contains a C-terminal histidine kinase signaling domain. Here, the SpdE-NarQ hybrid protein includes the tandem PAS/dCache sensing domain (proximal and distal PAS/Cache domains) and both transmembrane domains of SpdE, and the HAMP and histidine kinase signaling domain of NarQ (FIG. 21A). When activated, the NarQ signaling domain auto-phosphorylates, then transfers the phosphoryl group to NarL, a transcriptional activator that binds nitrate-responsive promotors such as narG. In this system LacZ, a β-galactosidase, is under the control of the narG promoter, therefore activation of NarL results in expression of LacZ and increased β-galactosidase activity. The β-galactosidase activity is quantified via a colorimetric assay. Based on the sensitivity of SpdE-dependent responses in the assays disclosed herein, this hybrid protein is expected to detect ligand concentrations of 10 μM or less. […] Therefore, β-galactosidase activity will decrease with increasing ligand concentrations (e.g., FIG. 21B).

## CC(C)[C@H](N)C(=O)O [valine]
[1]
  intracellular c-di-GMP: significantly lower
[2]
  immigration rate of WT Aer01 into fish: migrated into the fish faster
Aer01 [3]
  exploration response: 13.2 min
Aer01 [4]; WT Aer01, 1 μM and 1 mM ligand
  number of motile cells: striking increase
Aer01 [4]; WT Aer01, below 1 μM ligand
  motility: little increase
Aer01 [5]
  biofilm formation: more robust biofilms in the absence of ligand
[6]
  median CI (competitive index) of ΔspdE versus WT: 7
[7]
  thermal shift (ΔTm) in words: largest shifts

## CSCC[C@H](N)C(=O)O [methionine]
[7]
  thermal shift (ΔTm) in words: smaller degree

## C[C@H](N)C(=O)O [alanine]
[7]
  thermal shift (ΔTm) in words: smaller degree

## NCC(=O)O [Glycine, glycine]
[1]
  intracellular c-di-GMP: no change
[7]
  thermal shift (ΔTm) in words: negative amino acid control

## CC[C@H](C)[C@H](N)C(=O)O [isoleucine]
[7]
  thermal shift (ΔTm) in words: largest shifts

## CC(C)C[C@H](N)C(=O)O [leucine]
[7]
  thermal shift (ΔTm) in words: smaller degree

## O=C(O)[C@@H]1CCCN1 [proline]
[1]
  intracellular c-di-GMP: significantly lower
Aer01 [3]; WT Aer01, 100 nM proline
  motility response in exploration assay: a response was measured
Aer01 [3]
  exploration response: 28.9 min
Aer01 [3]; WT Aer01, between 100 nM and 1 mM proline
  exploration response across proline concentrations: dose-dependent response trend
Aer01 [4]
  motility: little increase
  number of motile cells: striking increase
Aer01 [5]
  biofilm formation: more robust biofilms in the absence of ligand
Aer01 [8]; WT Aer01, 1 mM proline (12.6 μm/sec without ligand)
  cellular velocity (average of median values): 24.5 μm/sec
Aer01 [8]; ΔspdE, 1 mM proline
  cellular velocity change: did not increase
[6]; 100 nM and 10 nM proline
  CI of ΔspdE versus WT: reduced CI but to a much lesser extent
[6]
  median CI (competitive index) of ΔspdE versus WT: 2
[7]
  ΔTm (difference between test Tm and water control Tm): ~20 degrees
  thermal shift (ΔTm) in words: largest shifts

## C[C@@H](O)[C@H](N)C(=O)O [threonine]
[7]
  thermal shift (ΔTm) in words: smaller degree

B1: W140/146A: Aer01 SpdE PAS/dCache variant, single residue change in the distal PAS/Cache (protein, listed as Aeromonas veronii)
chain: MSPAKPKNTWSLITRMRLGFLLLFIPVLLLGSIYYLHMERTLRHEQQQYLIARNTQYFHTLIEPYLATLKRQFTLIYQQVNYRDFSGPEIRNGERYLQQWQAYHKVMELDYVYVGTEHRKMLIHPSWQADEKFDPRTRPAYLLAASHPGQIVWTDPYYDYTLGTLTMALARVIKDPDGKRVGVLSLDTQLTPLASWLNSRHAQSHHLGNGYQLLLNHDGLVLAHPDRERVFKPLAHPDWLARMQQPQGFFLDDASGLMVSYYRIPEQRWILLSVEPTASMQQVIDSVSINVQLMIAVACFFYLLLALLWARYFRRMLGEITLLIRTSRSGGTAYHGSRMLELAKVYEEMDAASQDFAQIRQQANQDKLTGLYNRRFFDECLQKQLNSGAPFGVVMFDLDDFKRVNDTHGHQAGDVVLKRVSKLGMNLFHEWGWFCRYGGEELVLIFRYGEEQPMLPSLLEAFRLGVEQLEWREPDLTITISGGVAFSRSGLSAKELVELADKGVYQAKREGKNRICFPLRHTPHQSAEEGVPAFGETQQQTNEG
[9]
  ligand binding (thermal shift): reduction in ligand binding

B2: Y157/163A: Aer01 SpdE PAS/dCache variant, single residue change in the distal PAS/Cache (protein, listed as Aeromonas veronii)
chain: B1 chain with A140W, Y157A
[9]
  ligand binding (thermal shift): reduction in ligand binding

B3: SpdE-NarQ hybrid protein: SpdE tandem PAS/dCache and transmembrane domains fused to HAMP and histidine kinase signaling domain of E. coli NarQ (protein)
chain: MSPAKPKNTWSLITRMRLGFLLLFIPVLLLGSIYYLHMERTLRHEQQQYLIARNTQYFHTLIEPYLATLKRQFTLIYQQVNYRDFSGPEIRNGERYLQQWQAYHKVMELDYVYVGTEHRKMLIHPSWQADEKFDPRTRPWYLLAASHPGQIVWTDPYYDYTLGTLTMALARVIKDPDGKRVGVLSLDTQLTPLASWLNSRHAQSHHLGNGYQLLLNHDGLVLAHPDRERVFKPLAHPDWLARMQQPQGFFLDDASGLMVSYYRIPEQRWILLSVEPTASMQQVIDSVSINVQLMIAVACFFYLLLALLWLNQLVTASQRIEHGQFDSPPLDTNLPNELGLLAKTFNQMSSELHKLYRSLEASVEEKTRDLHEAKRRLEVLYQCSQALNTSQIDVHCFRHILQIVRDNEAAEYLELNVGENWRISEGQPNPELPMQILPVTMQETVYGELHWQNSHVSSSEPLLNSVSSMLGRGLYFNQAQKHFQQLLLMEERATIARELHDSLAQVLSYLRIQLTLLKRSIPEDNATAQSIMADFSQALNDAYRQLRELLTTFRLTLQQADLPSALREMLDTLQNQTSAKLTLDCRLPTLALDAQMQVHLLQIIREAVLNAMKHANASEIAVSCVTAPDGNHTVYIRDNGIGIGEPKEPEGHYGLNIMRERAERLGGTLTFSQPSGGGTLVSISFRSAEGEESQLM
modifications: SpdE-NarQ fusion protein
[10]
  detectable ligand concentration: ≤ 10 µM
